# PubChem BioAssay (NCI)
#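 Following 48 hours of exposure in 96-well plates, responses at five concentrations were used to interpolate endpoints linearly. The concentration for 50% growth inhibition is given as GI50. TGI is the concentration that stops growth completely.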
# Assays:
# Experiment in all cases: NCI tumour cell line growth inhibition, 48 h
# 786-0 renal = tested on: 786-0 renal
# A498 renal = tested on: A498 renal
# A549 NSCLC = tested on: A549 NSCLC
# ACHN renal = tested on: ACHN renal
# BT-549 breast = tested on: BT-549 breast
# CAKI-1 renal = tested on: CAKI-1 renal
# CCRF-CEM leukemia = tested on: CCRF-CEM leukemia
# COLO 205 colon = tested on: COLO 205 colon
# DU-145 prostate = tested on: DU-145 prostate
# EKVX NSCLC = tested on: EKVX NSCLC
# HCC-2998 colon = tested on: HCC-2998 colon
# HCT-116 colon = tested on: HCT-116 colon
# HCT-15 colon = tested on: HCT-15 colon
# HL-60(TB) leukemia = tested on: HL-60(TB) leukemia
# HOP-62 NSCLC = tested on: HOP-62 NSCLC
# HOP-92 NSCLC = tested on: HOP-92 NSCLC
# HS 578T breast = tested on: HS 578T breast
# HT29 colon = tested on: HT29 colon
# IGROV1 ovarian = tested on: IGROV1 ovarian
# K-562 leukemia = tested on: K-562 leukemia
# KM12 colon = tested on: KM12 colon
# LOX IMVI melanoma = tested on: LOX IMVI melanoma
# M14 melanoma = tested on: M14 melanoma
# MALME-3M melanoma = tested on: MALME-3M melanoma
# MCF7 breast = tested on: MCF7 breast
# MDA-MB-231 breast = tested on: MDA-MB-231 breast
# MDA-MB-435 = tested on: MDA-MB-435
# MOLT-4 leukemia = tested on: MOLT-4 leukemia
# NCI-H226 lung = tested on: NCI-H226 lung
# NCI-H23 lung = tested on: NCI-H23 lung
# NCI-H460 lung = tested on: NCI-H460 lung
# NCI-H522 lung = tested on: NCI-H522 lung
# NCI/ADR-RES ovarian = tested on: NCI/ADR-RES ovarian
# OVCAR-3 ovarian = tested on: OVCAR-3 ovarian
# OVCAR-4 ovarian = tested on: OVCAR-4 ovarian
# OVCAR-5 ovarian = tested on: OVCAR-5 ovarian
# OVCAR-8 ovarian = tested on: OVCAR-8 ovarian
# PC-3 prostate = tested on: PC-3 prostate
# RPMI-8226 leukemia = tested on: RPMI-8226 leukemia
# RXF 393 renal = tested on: RXF 393 renal
# SF-268 CNS = tested on: SF-268 CNS
# SF-295 CNS = tested on: SF-295 CNS
# SF-539 CNS = tested on: SF-539 CNS
# SK-MEL-2 melanoma = tested on: SK-MEL-2 melanoma
# SK-MEL-28 melanoma = tested on: SK-MEL-28 melanoma
# SK-MEL-5 melanoma = tested on: SK-MEL-5 melanoma
# SK-OV-3 ovarian = tested on: SK-OV-3 ovarian
# SN12C renal = tested on: SN12C renal
# SNB-19 CNS = tested on: SNB-19 CNS
# SNB-75 CNS = tested on: SNB-75 CNS
# SR leukemia = tested on: SR leukemia
# SW-620 colon = tested on: SW-620 colon
# T-47D breast = tested on: T-47D breast
# TK-10 renal = tested on: TK-10 renal
# U251 CNS = tested on: U251 CNS
# UACC-257 melanoma = tested on: UACC-257 melanoma
# UACC-62 melanoma = tested on: UACC-62 melanoma
# UO-31 renal = tested on: UO-31 renal
smiles,measurement,setting,value
COC1=C(C)C(=O)c2c(c(CCCl)c3n2CCC3OC(C)=O)C1=O (stereo unspecified),GI50,786-0 renal,0.287 µM
same,TGI,786-0 renal,1.24 µM
same,GI50,A498 renal,0.0632 µM
same,TGI,A498 renal,0.166 µM
same,GI50,A549 NSCLC,0.165 µM
same,TGI,A549 NSCLC,0.913 µM
same,GI50,ACHN renal,0.142 µM
same,TGI,ACHN renal,0.417 µM
same,GI50,BT-549 breast,0.149 µM
same,TGI,BT-549 breast,0.652 µM
same,GI50,CAKI-1 renal,0.35 µM
same,TGI,CAKI-1 renal,2.15 µM
same,GI50,CCRF-CEM leukemia,3.33 µM
same,TGI,CCRF-CEM leukemia,> 95.8 µM
same,GI50,COLO 205 colon,0.136 µM
same,TGI,COLO 205 colon,0.399 µM
same,GI50,DU-145 prostate,0.0248 µM
same,TGI,DU-145 prostate,1.69 µM
same,GI50,EKVX NSCLC,2.09 µM
same,TGI,EKVX NSCLC,7.3 µM
same,GI50,HCC-2998 colon,0.204 µM
same,TGI,HCC-2998 colon,0.582 µM
same,GI50,HCT-116 colon,0.791 µM
same,TGI,HCT-116 colon,> 22.8 µM
same,GI50,HCT-15 colon,0.155 µM
same,TGI,HCT-15 colon,2.35 µM
same,GI50,HL-60(TB) leukemia,2.43 µM
same,TGI,HL-60(TB) leukemia,33.6 µM
same,GI50,HOP-62 NSCLC,0.122 µM
same,TGI,HOP-62 NSCLC,0.793 µM
same,GI50,HOP-92 NSCLC,4.48 µM
same,TGI,HOP-92 NSCLC,24 µM
same,GI50,HS 578T breast,0.417 µM
same,TGI,HS 578T breast,3.62 µM
same,GI50,HT29 colon,0.152 µM
same,TGI,HT29 colon,1.89 µM
same,GI50,IGROV1 ovarian,1.65 µM
same,TGI,IGROV1 ovarian,10.1 µM
same,GI50,K-562 leukemia,1.65 µM
same,TGI,K-562 leukemia,> 33.1 µM
same,GI50,KM12 colon,0.642 µM
same,TGI,KM12 colon,3.05 µM
same,GI50,LOX IMVI melanoma,0.204 µM
same,TGI,LOX IMVI melanoma,0.927 µM
same,GI50,M14 melanoma,0.171 µM
same,TGI,M14 melanoma,0.592 µM
same,GI50,MALME-3M melanoma,0.188 µM
same,TGI,MALME-3M melanoma,0.414 µM
same,GI50,MCF7 breast,0.071 µM
same,TGI,MCF7 breast,1.85 µM
same,GI50,MDA-MB-231 breast,17.5 µM
same,TGI,MDA-MB-231 breast,61.7 µM
same,GI50,MDA-MB-435,0.523 µM
same,TGI,MDA-MB-435,1.97 µM
same,GI50,MOLT-4 leukemia,4.11 µM
same,TGI,MOLT-4 leukemia,> 100 µM
same,GI50,NCI-H226 lung,0.246 µM
same,TGI,NCI-H226 lung,1.03 µM
same,GI50,NCI-H23 lung,0.0586 µM
same,TGI,NCI-H23 lung,0.992 µM
same,GI50,NCI-H460 lung,0.0389 µM
same,TGI,NCI-H460 lung,1.29 µM
same,GI50,NCI-H522 lung,0.192 µM
same,TGI,NCI-H522 lung,0.85 µM
same,GI50,NCI/ADR-RES ovarian,0.447 µM
same,TGI,NCI/ADR-RES ovarian,8.47 µM
same,GI50,OVCAR-3 ovarian,1.48 µM
same,TGI,OVCAR-3 ovarian,5.43 µM
same,GI50,OVCAR-4 ovarian,7.18 µM
same,TGI,OVCAR-4 ovarian,38.6 µM
same,GI50,OVCAR-5 ovarian,0.325 µM
same,TGI,OVCAR-5 ovarian,9.32 µM
same,GI50,OVCAR-8 ovarian,0.897 µM
same,TGI,OVCAR-8 ovarian,19.4 µM
same,GI50,PC-3 prostate,0.749 µM
same,TGI,PC-3 prostate,14.3 µM
same,GI50,RPMI-8226 leukemia,2.84 µM
same,TGI,RPMI-8226 leukemia,27.3 µM
same,GI50,RXF 393 renal,0.167 µM
same,TGI,RXF 393 renal,0.39 µM
same,GI50,SF-268 CNS,0.31 µM
same,TGI,SF-268 CNS,17.6 µM
same,GI50,SF-295 CNS,0.153 µM
same,TGI,SF-295 CNS,0.864 µM
same,GI50,SF-539 CNS,0.157 µM
same,TGI,SF-539 CNS,0.545 µM
same,GI50,SK-MEL-2 melanoma,0.319 µM
same,TGI,SK-MEL-2 melanoma,1 µM
same,GI50,SK-MEL-28 melanoma,0.31 µM
same,TGI,SK-MEL-28 melanoma,1.09 µM
same,GI50,SK-MEL-5 melanoma,0.0849 µM
same,TGI,SK-MEL-5 melanoma,0.228 µM
same,GI50,SK-OV-3 ovarian,0.279 µM
same,TGI,SK-OV-3 ovarian,0.983 µM
same,GI50,SN12C renal,0.391 µM
same,TGI,SN12C renal,15.4 µM
same,GI50,SNB-19 CNS,0.272 µM
same,TGI,SNB-19 CNS,18.2 µM
same,GI50,SNB-75 CNS,0.141 µM
same,TGI,SNB-75 CNS,0.376 µM
same,GI50,SR leukemia,0.155 µM
same,TGI,SR leukemia,> 32.5 µM
same,GI50,SW-620 colon,0.453 µM
same,TGI,SW-620 colon,12.3 µM
same,GI50,T-47D breast,8.22 µM
same,TGI,T-47D breast,> 94.6 µM
same,GI50,TK-10 renal,0.26 µM
same,TGI,TK-10 renal,0.626 µM
same,GI50,U251 CNS,0.273 µM
same,TGI,U251 CNS,13.4 µM
same,GI50,UACC-257 melanoma,0.227 µM
same,TGI,UACC-257 melanoma,0.733 µM
same,GI50,UACC-62 melanoma,0.208 µM
same,TGI,UACC-62 melanoma,0.578 µM
same,GI50,UO-31 renal,0.241 µM
same,TGI,UO-31 renal,0.739 µM
